According to ChEMBL document CHEMBL4715696, “In vitro synergistic anticancer activity of the combination of T-type calcium channel blocker and chemotherapeutic agent in A549 cells” (Bioorg Med Chem Lett, 2016):

Key:
A549 [1] = assay: Induction of cell cycle arrest in human A549 cells assessed as accumulation at G1 phase at 5 uM after 24 hrs by flow cytometric analysis (reference value: 53.1%); assay type: functional
A549 [2] = assay: Induction of cell cycle arrest in human A549 cells assessed as accumulation at sub G1 phase at 5 uM after 48 hrs by flow cytometric analysis (reference value: 1.9 to 4.9%); assay type: functional
A549 [3] = assay: Decrease in cell cycle associated protein expression in human A549 cells assessed as fold change in CDK2 expression at 2.5 uM after 48 hrs by Western blot analysis (reference value: 0.48); assay type: functional
A549 [4] = assay: Decrease in cell cycle associated protein expression in human A549 cells assessed as fold change in CDK2 expression at 10 uM after 12 hrs by Western blot analysis (reference value: 0.79); assay type: functional
A549 [5] = assay: Decrease in cell cycle associated protein expression in human A549 cells assessed as fold change in CDK4 expression at 10 uM after 24 hrs by Western blot analysis (reference value: 0.87); assay type: functional
A549 [6] = assay: Decrease in cell cycle associated protein expression in human A549 cells assessed as fold change in CDK6 expression at 5 uM after 48 hrs by Western blot analysis (reference value: 1.05); assay type: functional
A549 [7] = assay: Decrease in cell cycle associated protein expression in human A549 cells assessed as fold change in CDK6 expression at 10 uM after 12 hrs by Western blot analysis (reference value: 0.7); assay type: functional
A549 [8] = assay: Decrease in cell cycle associated protein expression in human A549 cells assessed as fold change in CDK6 expression at 10 uM after 24 hrs by Western blot analysis (reference value: 0.7); assay type: functional
A549 [9] = assay: Decrease in cell cycle associated protein expression in human A549 cells assessed as fold change in cyclin D1 expression at 5 uM after 48 hrs by Western blot analysis (reference value: 0.39); assay type: functional
A549 [10] = assay: Decrease in cell cycle associated protein expression in human A549 cells assessed as fold change in cyclin D1 expression at 10 uM after 6 hrs by Western blot analysis (reference value: 0.68); assay type: functional
A549 [11] = assay: Decrease in cell cycle associated protein expression in human A549 cells assessed as fold change in cyclin D1 expression at 10 uM after 36 hrs by Western blot analysis (reference value: 0.68); assay type: functional
A549 [12] = assay: Decrease in cell cycle associated protein expression in human A549 cells assessed as fold change in cyclin D2 expression at 5 uM after 48 hrs by Western blot analysis (reference value: 0.46); assay type: functional
A549 [13] = assay: Decrease in cell cycle associated protein expression in human A549 cells assessed as fold change in cyclin D2 expression at 10 uM after 48 hrs by Western blot analysis (reference value: 0.46 to 0.77); assay type: functional
A549 [14] = assay: Decrease in cell cycle associated protein expression in human A549 cells assessed as fold change in cyclin D2 expression at 10 uM after 12 hrs by Western blot analysis (reference value: 0.77); assay type: functional
A549 [15] = assay: Decrease in cell cycle associated protein expression in human A549 cells assessed as fold change in cyclin D2 expression at 10 uM after 36 hrs by Western blot analysis (reference value: 0.77); assay type: functional
A549 [16] = assay: Decrease in cell cycle associated protein expression in human A549 cells assessed as reduction in cyclin D3 expression after 48 hrs by Western blot analysis; assay type: functional, cell-based; conditions: dose 2.5-10 µM
A549 [17] = assay: Decrease in cell cycle associated protein expression in human A549 cells assessed as fold change in cyclin D3 expression at 5 uM after 48 hrs by Western blot analysis (reference value: 0.73); assay type: functional
A549 [18] = assay: Decrease in cell cycle associated protein expression in human A549 cells assessed as reduction in cyclin D3 expression at 10 uM by Western blot analysis; assay type: functional, cell-based; conditions: time 6-48 hrs, TDE = time-dependent effect
A549 [19] = assay: Decrease in cell cycle associated protein expression in human A549 cells assessed as reduction in cyclin E expression at 10 uM by Western blot analysis; assay type: functional, cell-based; conditions: time 6-48 hrs, TDE = time-dependent effect
A549 [20] = assay: Decrease in cell cycle associated protein expression in human A549 cells assessed as fold change in cyclin E expression at 10 uM after 6 hrs by Western blot analysis (reference value: 0.55); assay type: functional
A549 [21] = assay: Upregulation of p27KIP1 protein expression in human A549 cells after 48 hrs by Western blot analysis; assay type: functional, cell-based; conditions: dose 2.5-10 µM
[22] = Upregulation of p27KIP1 protein expression in human A549 cells assessed as fold change in expression at 2.5 uM after 48 hrs by Western blot analysis (reference value: 0.48); assay type: functional
[23] = Upregulation of p27KIP1 protein expression in human A549 cells assessed as fold change in expression at 10 uM after 12 hrs by Western blot analysis (reference value: 0.83); assay type: functional
[24] = Upregulation of p27KIP1 protein expression in human A549 cells assessed as fold change in expression at 10 uM after 36 hrs by Western blot analysis (reference value: 0.83); assay type: functional
[25] = Metabolic stability in rat liver microsomes assessed as parent compound remaining at 1 uM measured for 30 mins; assay type: ADME, Microsome; conditions: read-out: Stabilty
A549 [26] = assay: Potentiation of cisplatin-induced cell cycle arrest in human A549 cells assessed as accumulation at G1 phase at 5 uM in presence of cisplatin after 48 hrs by flow cytometric analysis (reference value: 14.4%); assay type: functional
A549 [27] = assay: Potentiation of etoposide-induced cell cycle arrest in human A549 cells assessed as accumulation at S phase at 5 uM in presence of etoposide after 48 hrs by flow cytometric analysis (Rvb =12.3%); assay type: functional
A549 [28] = assay: Induction of cell cycle arrest in human A549 cells assessed as accumulation at G2/M phase at 2.5 uM after 48 hrs by flow cytometric analysis (Rvb =22.1%); assay type: functional
A549 [29] = assay: Potentiation of etoposide-induced cell cycle arrest in human A549 cells assessed as accumulation at G2/M phase at 10 uM in presence of etoposide after 48 hrs by flow cytometric analysis (Rvb =18.9%); assay type: functional
A549 [30] = assay: Potentiation of cisplatin-induced cell cycle arrest in human A549 cells assessed as accumulation at G2/M phase at 5 uM in presence of cisplatin after 48 hrs by flow cytometric analysis (Rvb =52.9%); assay type: functional
A549 [31] = assay: Induction of cell cycle arrest in human A549 cells assessed as accumulation at G1 phase at 10 uM after 48 hrs by flow cytometric analysis (reference value: 65.5%); assay type: functional
A549 [32] = assay: Induction of cell cycle arrest in human A549 cells assessed as accumulation at G2/M phase at 10 uM after 48 hrs by flow cytometric analysis (reference value: 22.1%); assay type: functional
A549 [33] = assay: Induction of apoptosis in human A549 cells assessed as early apoptotic cells at 10 uM incubated for 48 hrs by AnnexinV-FITC/propidium iodide staining based flow cytometry (reference value: 1.2%); assay type: functional
A549 [34] = assay: Induction of apoptosis in human A549 cells assessed as late apoptotic cells at 10 uM incubated for 48 hrs by AnnexinV-FITC/propidium iodide staining based flow cytometry (reference value: 4%); assay type: functional
A549 [35] = assay: Potentiation of etoposide-induced apoptosis in human A549 cells assessed as late apoptotic cells at 10 uM incubated for 48 hrs by AnnexinV-FITC/propidium iodide staining based flow cytometry (reference value: 12.6%); assay type: functional
[36] = Permeability of the compound by PAMPA assay; assay type: ADME; conditions: read-out: permeability

remaining at 0.5 h, 1 µM [25]: 62.6% | Papp [36]: < 15 nm/s
Compound: CN(C)C(=O)NCCCN(C)C1=Nc2ccccc2C(CC(=O)NCc2ccc(F)cc2)N1c1ccc(C2CCCCC2)cc1 (stereo unspecified)
Activity (A549 [1]): 63.6% | Activity (A549 [2]): 1% | fold change (FC) (A549 [3]): 0.47 | fold change (FC) (A549 [4]): 0.62 | fold change (FC) (A549 [5]): 0.59 | fold change (FC) (A549 [6]): 0.45 | fold change (FC) (A549 [7]): 0.64 | fold change (FC) (A549 [8]): 0.47 | fold change (FC) (A549 [9]): 0.5 | fold change (FC) (A549 [10]): 0.47 | fold change (FC) (A549 [11]): 0.62 | fold change (FC) (A549 [12]): 0.52 | fold change (FC) (A549 [13]): 0.18 | fold change (FC) (A549 [14]): 0.36 | fold change (FC) (A549 [15]): 0.61 | Activity (A549 [16]): Dose-dependent effect | fold change (FC) (A549 [17]): 0.77 | Activity (A549 [18]): Tde | Activity (A549 [19]): Tde | fold change (FC) (A549 [20]): 0.53 | Activity (A549 [21]): Dose-dependent effect | fold change (FC) [22]: 0.62 | fold change (FC) [23]: 0.65 | fold change (FC) [24]: 1.52 | Activity (A549 [26]): 24.5% | Activity (A549 [27]): 7.9% | Activity (A549 [28]): 19.4% | Activity (A549 [29]): 3.2% | Activity (A549 [30]): 33.9% | Activity (A549 [31]): 77.4% | Activity (A549 [32]): 10.9% | Activity (A549 [33]): 8.8% | Activity (A549 [34]): 4.3% | Activity (A549 [35]): 12.9%
